Entries after “also recorded” stand apart in the source; their conditions may differ.

For one series, the system named is hES cells. Nature of the series: Low-density real-time cell index monitoring (RT-CES impedance reader). In kind it is cell-based, human. Particulars: for time after plating at which cell index rises above background / expansion detectable: 50 μM each factor; for time after plating at which cell index rises above background / expansion detectable / lowest concentration that elicited an effect: StemPro hESC SFM; for lowest concentration that elicited an effect: titration. Here is the method: FIG. 4. Titration of NE and ACh using the RT-CES impedance reader. 1000 hES cells/well were plated in StemPro® hESC SFM containing the indicated concentrations of small molecules (in μM). In such an assay, the timing of when the cell index rises is associated with the proportion of cells that survive and expand at low density.
FIG. 5. Combined effects of small molecules compound combinations in low cell density assays. (A) 1000 hES cells/well were plated in StemPro® hESC SFM containing small molecules at 50 μM (NE, ACh, Adenosine, GABA) or 10 μM (Y27632). The assay was carried out over 5 days using the RT-CES system.
FIG. 6. […] 1000 hES cells/well were plated in StemPro® hESC SFM containing Heregulin, IGF1 and Activin (HIA) and the indicated small molecules. […] Compounds were tested at 10 μM. The DMSO trace is an average of 8 wells. […] Compounds were tested at the indicated concentrations.
FIG. 7. […] 1000 hES cells/well were plated in StemPro® hESC SFM containing the indicated combinations of growth factors and small molecules. Heregulin (H), LR3-IGF1 (I), Activin (A).
FIG. 9. Low-density RT-CES assays of combinations of growth factors and neurotransmitters. 1000 hES cells/well were plated in StemPro® hESC SFM containing the indicated combinations of growth factors and small molecules. Heregulin (H), LR3-IGF1 (I), Activin (A). Small molecules were tested at 50 μM.
Furthermore, pluripotent cells can also be grown in 96-well culture devices that provide real-time measurements of impedance, which can be used to measure cell proliferation and viability using the RT-CES™ methods from ACEA Biosciences, Inc. (www (dot) aceabio (dot) com). Such an approach would enable a label-free identification and quantification of subtle or immediate effects on differentiable cells, as well as measurements of proliferation, apoptosis and changes to morphology, in real time.
To examine more closely the potency of individual neurotransmitters and determine if synergies exist between different factors, low-density assays were performed in real time using an impedance reader. The ACEA biosciences RT-CES system uses 96-well trays that contain embedded microsensors to monitor changes in electrical impedance, which is translated into a measure of cell index. Any overt alteration within a cell culture can be detected, including but not limited to cell proliferation, migration, cell spreading, apoptosis, differentiation and the like. […] Once an undifferentiated culture becomes confluent the cell index remains high, but tends to go down and up (scallop) between daily feedings. Conversely, differentiation is typically indicated by the appearance of distinctive patterns, such as peaks and troughs in the cell index, likely indicative of an epithelial-to-mesenchymal transition, flattening, cell migration, apoptosis or similar differentiation and growth related changes.
Human ES cells were plated at low density, 1000 cells/well, in RT-CES trays and cultured for 10 days (FIG. 4). Cells were plated directly in StemPro® hESC SFM containing carrier control (DMSO), NE, or ACh.

The test system of a further series is CyT49 cells. Nature of the series: Karyotyping (G-banding) of replated suspension cultures after 10 passages. In kind it is cell-based, human. Particulars: after 10 passages in suspension, G-banded. As for the experimental part: FIG. 11. Suspension hES cell cultured with NE, […] remain undifferentiated. CyT49 cells were grown as suspension aggregates in the presence of NE, […] for 16 passages without differentiating morphologically. After p10, some cells were re-plated to adherent culture and examined by karyotyping and immunofluorescent staining for OCT4 and Tra-1-61. All cultures remained undifferentiated and expressed these pluripotency markers uniformly. (SP) StemPro® SFM HIA, NE (+NE at 50 μM), ACh (+ACh at 50 μM), NE/ACh (+NE/ACh at 50 μM). Karyotype data is shown to the right. […] Cultures containing ACh were aneuploid.
To examine these possibilities, these cultures were serially passaged to p1 (FIG. 10E). Because Y27632 treated aggregates were of a larger size, they required passaging after only 3 days, and only generated about 1.2×10^7 cells during that period. In contrast, the cultures containing NE, ACh or NE/ACh were cultured for 6 days and generated greater than 2×10^7 cells per well. Suspension cultures containing NE, ACh or NE/ACh were maintained for 12 serial passages, in parallel with a HAIF control culture, and all conditions maintained an undifferentiated morphology throughout. Suspension aggregates were dissociated to single cells after 10 passages and replated to adherent culture for analyses. […] Replated cultures were also G-banded to determine their karyotype.

As for `NCC(O)c1ccc(O)c(O)c1` (racemic) [NE, (±)-Norepinephrine (+)-bitartrate], the “effect on low-density survival/proliferation” value with hES cells (1 μM, 1000 cells/well, 10 days) is recorded as “did not appear to affect low-density survival/proliferation”. Moreover, the “survival and expansion at low density, single factors and two-factor combinations” value in the series on hES cells (50 μM (NE, ACh, Adenosine, GABA) or 10 μM (Y27632), 1000 cells/well, 5 days) is “effective survival and expansion”. Also, the “time after plating at which cell index rises above background / expansion detectable” value with hES cells (1000 cells/well) was “about 3 days”. Moreover, the “time to apparent confluence” value is listed as approximately 9 days in the series on hES cells (70 μM, 1000 cells/well) and approximately 10 days with hES cells (100 μM, 1000 cells/well). The “time at which increases in cell index were first detected” value in the series on hES cells (5, 10 and 50 μM, 1000 cells/well) is on record as approximately 6.5 days. Moreover, in the series with hES cells (HAI or HI background, 1000 cells/well), the “survival/expansion on addition of neurotransmitter” value is listed as “substantially improved survival/expansion”. In addition, the survival/expansion entry with hES cells (StemPro hESC SFM HI background) is listed as “maximal survival/expansion”. In addition, in the series on hES cells (small molecules 50 μM, 1000 cells/well, growth factor combinations), the “rises in impedance / survival and expansion with neurotransmitters” value is recorded as “detected much earlier”. Also, the “lowest concentration that elicited an effect” value in the series on hES cells (1000 cells/well) was found to be 5 µM.
On to `CC(=O)OCC[N+](C)(C)C` [ACh, acetylcholine], for which, in the series on hES cells (1000 cells/well), the “time after plating at which cell index rises above background / expansion detectable” value is given as “about 3 days” and the “lowest concentration that elicited an effect” value came to 5 µM. In the series with CyT49 cells, the karyotype result is “aneuploid or abnormal; also recorded: aneuploid”.

These data come from patent publication US8685726B2, “Small molecules supporting pluripotent cell growth and methods thereof” (Viacyte, Inc., priority 2009, dated 2014).
